Legend:
IBMIR = IBMIR in vitro
TF = TF synthesis and secretion in cultured human islets (TF content by EIA); format: cell-based
Experimental: Islets were cultured for 24 h in CMRL-medium containing […] Nicotinamide, which is the standard medium used for islet culture. The medium was thereafter exchanged to CMRL-medium without Nicotinamid. After a baseline period of another 24 h, islets were handpicked for analysis of TF content. Culture was continued for 48 h with medium containing agents known to affect TF expression in monocytes and endothelial cells. These were, L-Arginin, Cyclosporin A, Enalapril, acetylcysteine and nicotinamid. The islets were harvested, the TF content analysed using a commercial EIA kit and the islets tested in the in vitro loop model.
Islets were cultured for 48 h in medium containing 0, 10, 25 and 50 mM Nicotinamid and the intracellular TF concentration assessed, see FIG. 6. The islets were also exposed to fresh human ABO compatible blood in the in vitro loop model. Samples were retrieved after 5, 15, 30 and 60 min and analysed for TAT, see FIG. 7.
Islets were cultured for 48 h in medium containing Enalapril (40 μg/ml), Cyclosporin A (10 μmol/L), L-Aginine (1 mmol/L), Nicotinamide (10 mmol/L) and the intracellular TF concentration assessed. The concentration of Tf is expressed as percentage of the untreated control, see FIG. 8.

Compound | IBMIR in vitro (IBMIR) | production of tissue factor in the islets (TF content) (TF; nicotinamide 0 to 50 mM, 48 h culture) | secretion of TF (TF; nicotinamide, dose dependent)
N=C(N)c1ccc(CNC(=O)[C@@H]2CCN2C(=O)[C@H](NCC(=O)O)C2CCCCC2)cc1 [Melagatran] | abrogated | – | –
NC(=O)c1cccnc1 [nicotinamide] | – | dose-dependently inhibited | inhibited

Source: US20050255111A1, “Use of an inhibitor or antagonist against tissue factor” (priority 2002, published 2005)
